Experimental data taken from US8101766B2, “Crystalline form of a biphenyl compound” (Theravance, Inc., priority 2004, dated 2012).
pEC50, pKi: −log10 of the molar value.

Key:
[1] = biological target: T1, human M2 muscarinic receptor (Homo sapiens, UniProt P08172); assay: Radioligand binding assay for muscarinic receptors (hM2); conditions: [3H]-NMS displacement, CHO cell membranes
T1 construct: expressed in transfected cells
T1 sequence (P08172 1-466): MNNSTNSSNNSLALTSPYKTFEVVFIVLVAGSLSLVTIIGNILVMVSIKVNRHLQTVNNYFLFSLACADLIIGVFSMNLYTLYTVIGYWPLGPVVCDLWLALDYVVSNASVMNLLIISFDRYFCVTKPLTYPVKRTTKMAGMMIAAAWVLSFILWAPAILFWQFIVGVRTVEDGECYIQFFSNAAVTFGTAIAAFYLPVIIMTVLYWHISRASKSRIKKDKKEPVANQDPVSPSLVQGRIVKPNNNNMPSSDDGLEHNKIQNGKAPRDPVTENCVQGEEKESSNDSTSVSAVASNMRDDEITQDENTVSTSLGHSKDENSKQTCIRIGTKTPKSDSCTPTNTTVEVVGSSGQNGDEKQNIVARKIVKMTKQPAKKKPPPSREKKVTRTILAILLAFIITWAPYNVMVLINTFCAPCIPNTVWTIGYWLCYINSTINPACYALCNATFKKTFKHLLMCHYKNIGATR
Description: The cells were grown in a 5% CO2, 37° C. incubator and lifted with 2 mM EDTA in dPBS. Cells were collected by 5 minute centrifugation at 650×g, and cell pellets were either stored frozen at −80° C. or membranes were prepared immediately for use. For membrane preparation, cell pellets were resuspended in lysis buffer and homogenized with a Polytron PT-2100 tissue disrupter (Kinematica AG; 20 seconds×2 bursts). Crude membranes were centrifuged at 40,000×g for 15 minutes at 4° C. The membrane pellet was then resuspended with re-suspension buffer and homogenized again with the Polytron tissue disrupter. […] All membranes were stored frozen in aliquots at −80° C. or used immediately.
The membranes were briefly homogenized using a Polytron tissue disruptor (10 seconds) prior to assay plate addition. […] Filter plates were rinsed three times with wash buffer (10 mM HEPES) to remove unbound radioactivity. […] Binding data were analyzed by nonlinear regression analysis with the GraphPad Prism Software package (GraphPad Software, Inc., San Diego, Calif.) using the one-site competition model.

hM2 receptor = biological target: T2, hM2 receptor (Homo sapiens, UniProt P08172); assay: Blockade of oxotremorine-stimulated [35S]GTPγS binding in CHO-K1 cells expressing the hM2 receptor; type: biochemical
T2 construct: expressed in transfected cells
T2 sequence (P08172 1-466): T1 sequence (P08172 1-466)
Description: A. Blockade of Agonist-Mediated [^35S]GTPγS Binding
The functional potency of a test compound was determined by measuring the ability of the compound to block oxotremorine-stimulated [^35S]GTPγS binding in CHO-K1 cells expressing the hM2 receptor.
At the time of use, frozen membranes were thawed and then diluted in assay buffer with a final target tissue concentration of 5-10 μg protein per well. The membranes were briefly homogenized using a Polytron PT-2100 tissue disrupter and then added to the assay plates.
The assay plates were then incubated at 37° C. for 60 minutes. The assay plates were filtered over 1% BSA-pretreated GF/B filters using a PerkinElmer 96-well harvester. The plates were rinsed with ice-cold wash buffer for 3×3 seconds and then air or vacuum dried. Microscint-20 scintillation liquid (50 μL) was added to each well, and each plate was sealed and radioactivity counted on a Topcounter (PerkinElmer). Data were analyzed by nonlinear regression analysis with the GraphPad Prism Software package (GraphPad Software, Inc., San Diego, Calif.) using the non-linear regression, one-site competition equation. The Cheng-Prusoff equation was used to calculate the Ki, using the IC50 values of the concentration-response curve for the test compound and the oxotremorine concentration in the assay as the KD and [L], ligand concentration, respectively.

β2 adrenergic receptor = β2 adrenergic receptor (Homo sapiens, UniProt P07550); assay: Whole-cell cAMP Flashplate assay with lung epithelial cell line (BEAS-2B) endogenously expressing human β2 adrenergic receptor; type: cell-based; set-up: a cell line expressing endogenous levels of the β2 adrenergic receptor, a human lung epithelial cell line (BEAS-2B) was used; host or cells: BEAS-2B human lung epithelial cells; conditions: BEAS-2B human lung epithelial cell line, endogenous receptor
Description: On the day of the assay, cells were rinsed with PBS, lifted by scraping with 5 mM EDTA in PBS, and counted. Cells were pelleted by centrifugation at 1,000 rpm and re-suspended in stimulation buffer pre-warmed to 37° C. at a final concentration of 600,000 cells/mL. Cells were used at a final concentration of 100,000 to 120,000 cells/well in this assay. […] Test compounds were tested in the assay at 11 different concentrations, ranging from 10 μM to 10 pM. Reactions were incubated for 10 min at 37° C. and stopped by addition of 100 μL of ice-cold detection buffer. Plates were sealed, incubated over night at 4° C. and counted the next morning in a Topcount scintillation counter (Packard BioScience Co., Meriden, Conn.). […] Data were analyzed by nonlinear regression analysis with the GraphPad Prism Software package (GraphPad Software, Inc., San Diego, Calif.) using the 4-parameter model for sigmoidal dose-response.

β2 adrenergic receptor, sequence (P07550 whole entry): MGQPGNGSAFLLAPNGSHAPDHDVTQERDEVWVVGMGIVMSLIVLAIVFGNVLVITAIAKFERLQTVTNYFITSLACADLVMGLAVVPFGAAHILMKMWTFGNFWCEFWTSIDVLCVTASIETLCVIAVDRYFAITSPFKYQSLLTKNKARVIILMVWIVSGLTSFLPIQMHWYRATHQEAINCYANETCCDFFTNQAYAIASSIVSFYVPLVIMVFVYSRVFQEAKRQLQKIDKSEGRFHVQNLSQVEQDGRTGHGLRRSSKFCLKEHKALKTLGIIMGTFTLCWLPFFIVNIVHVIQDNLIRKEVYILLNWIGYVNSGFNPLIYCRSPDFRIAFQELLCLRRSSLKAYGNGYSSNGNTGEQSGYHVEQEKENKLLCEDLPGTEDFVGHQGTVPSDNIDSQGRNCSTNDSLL

COc1cc(NC(=O)CCN2CCC(OC(=O)Nc3ccccc3-c3ccccc3)CC2)c(Cl)cc1CNC[C@H](O)c1ccc(O)c2[nH]c(=O)ccc12 [compound of formula I, biphenyl-2-ylcarbamic acid 1-[2-(2-chloro-4-{[(R)-2-hydroxy-2-(8-hydroxy-2-oxo-1,2-dihydroquinolin-5-yl)ethylamino]methyl}-5-methoxyphenylcarbamoyl)ethyl]piperidin-4-yl ester]
> 8.00: pKi [1] | pKi (hM2 receptor) | pEC50 (β2 adrenergic receptor)
